Laboratory results reported in patent US20210236664A1, “ALPHA PARTICLE FORMULATIONS FOR TREATMENT OF SOLID TUMORS” (The Johns Hopkins University, priority 2018, published 2021).

Legend:
[1] = system: castration resistant prostate cancer; settings: castration resistant prostate cancer patients; cited from earlier work
bladder cancer = settings: survive >300 d following treatment; cited from earlier work
Hep G2 tumor = test: Tumor retention after intra-tumoral injection in hepatocellular carcinoma mouse model; type: in vivo, mice; settings: n=3
Experimental: ^111In-DOTA-tetradecylamine(TDA) was synthesized with a radiolabeling yield >95%. The retention of ^111In-DOTA-TDA within a hepatocellular carcinoma mouse model was evaluated; Hep G2 tumor-bearing SCID mice (24 hours, n=3) and NCG mice (48 hours, n=3) following intra-tumoral injections of ^111In-DOTA-TDA alone or as a Lipiodol emulsion (FIG. 6).

[2] = Octanol partition coefficient
Source text: Partition coefficients will be as previously described with some minor modifications. Decristoforo, C., et al., 2008. Octanol and saline (pH=7.4) will be used to assess the […] of the proposed compounds. Briefly, the radiolabeled ^111In- and ^225Ac-labeled DOTA(GA)-alkyl chelates will be vortexed with octanol and saline then centrifuged to separate layers. Aliquots (3) from each layer will be removed and counted. The […] will be determined using the following equations:
Poct/saline=Log([activity]octanol/[activity]saline).
A greater than 95% purity was obtained following purification with a Seppak.

[Cl][223Ra][Cl] [XOFIGO®, Radium-223 Dichloride]
increased survival benefit [1]: 2.8 month

CO[C@@]12[C@H](COC(N)=O)C3=C(C(=O)C(C)=C(N)C3=O)N1C[C@@H]1N[C@@H]12 [mitomycin C]
survival of mice (bladder cancer): 40%

^111In-DOTA-tetradecylamine [^111In-DOTA-TDA]
uptake within the tumor (Hep G2 tumor; 24 hours, Hep G2 tumor-bearing SCID mice): 103±65.0 % ID/g
uptake within the tumor (Hep G2 tumor; 48 hours, Hep G2 tumor-bearing NCG mice): 20.0±15.9 % ID/g
Log Poct [2]: 1.57±0.005
